Source: patent US20160324818A1, “DIET FOOD COMPOSITION INCLUDING DHA TO REDUCE SHORT-TERM AND LONG-TERM LOW-GRADE INFLAMMATION” (PRI S.A., priority 2013, published 2016)

Experiments:
Type in all cases: in vivo, human (obese patients, average BMI=33)
[1] = Slimming study under medical supervision: weight loss and waistline
Method: (§1) A study under medical supervision was conducted among obese patients (average BMI=33). The subjects were separated into two groups: • a “control” group consuming food compositions similar to those of the invention but without DHA; and • a “study” group consuming food compositions according to the invention comprising DHA.
For the first 60 days of the study, the patients in the study group each received 500 mg of DHA per day solely through the consumption of food compositions and portions according to the invention. Their calorie intake was below 800 kcals per day and was presented chiefly in the form of food compositions or portions according to the invention. To be more precise, the patients consumed five food portions according to the invention during the day, two of them during the main meals where the portions were accompanied by vegetables in order to ensure their DHA intake especially. […] The goal was to re-educate the patient in terms of food intake. Traditional foods were gradually re-introduced into the patient's daily food intake in order to avoid deficiency and fatigue as well as to re-educate him or her on the food intake level.
The progress of the waistline measurements in the two groups of patients is shown in the graph of FIG. 2. The waistline measurement makes it possible to evaluate loss of abdominal fat, a parameter associated with the metabolic syndrome. […]

[2] = system: ultrasensitive reactive protein C (PRCus); assay: Slimming study: blood level of ultrasensitive reactive protein C; conditions: DHA every day during slimming diet (FIG. 3); control group 12%
Method: as §1
At the start of the program as well as after 30 days if necessary, then 60 days and at the end of 6 months the subjects underwent a blood test in order to evaluate their levels of pro-inflammatory and anti-inflammatory markers depending on their increase or loss of weight. The markers or molecules indicating the presence of inflammation that were tested for were leucocytes, neutrophils, the reactive protein C (PRC), TNF-α, interleukin 6, leptin, resistin and adiponectin.
For the first 60 days of the study, the patients in the study group each received 500 mg of DHA per day solely through the consumption of food compositions and portions according to the invention. Their calorie intake was below 800 kcals per day and was presented chiefly in the form of food compositions or portions according to the invention. […]
It can be seen from FIGS. 3 and 4 that there was a diminishing of the pro-inflammatory markers. Two inflammation markers associated with obesity were tested for and their levels were measured: these were ultrasensitive reactive protein C (PRCus) and leptin.

PD1 = assay: Slimming study: blood level of anti-inflammatory marker PD1; conditions: day 60; control group reduced by 36%
Method: as §1
At the start of the program as well as after 30 days if necessary, then 60 days and at the end of 6 months the subjects underwent a blood test in order to evaluate their levels of pro-inflammatory and anti-inflammatory markers depending on their increase or loss of weight. The markers or molecules indicating the presence of inflammation that were tested for were leucocytes, neutrophils, the reactive protein C (PRC), TNF-α, interleukin 6, leptin, resistin and adiponectin. […]

CC/C=C\C/C=C\C/C=C\C/C=C\C/C=C\C/C=C\CCC(=O)O [DHA, docosahexaenoic acid]
average weight loss ([1]; 6 months (D-180) from D-0, same figure stated for both groups): about 20 kg
average loss in waistline measurement ([1]; end of 60 days, same figure stated for each group): about 15 cm
reduction of PRC rate [2]: approximately 18%
change of PD1 level as compared with day 0 (PD1): +83%
